Measured values published in patent US9586936B2, “Heteroarylamine derivatives as protein kinase inhibitors” (KOREA INSTITUTE OF SCIENCE AND TECHNOLOGY, priority 2014, dated 2017).

Experiments:
microsomal stability [1] = format: in vitro ADME, Mouse; details: for microsomal stability (% at time) / microsomal stability (% at time), Negative control (excluding NADPH): Mouse
Method: (§1) The microsomal stability of N-(2,6-dichloro-3,5-dimethoxyphenyl)-1-(6-((4-(4-ethylpiperazin-1-yl)phenyl)amino)pyrimidin-4-yl)-1H-benz[d]imidazol-2-amine synthesized in Example 1, as a representative compound of the present invention, was evaluated.

microsomal stability [2] = format: in vitro ADME, Rat; details: for microsomal stability (% at time): Rat
Method: as §1

[3] = in-vivo PK profile, mouse PK; details: ICR mice
From the text: The in-vivo PK profile (mouse PK/ICR mice and rat PK/Sprague-Dawley rat) of N-(2,6-dichloro-3,5-dimethoxyphenyl)-1-(6-((4-(4-ethylpiperazin-1-yl)phenyl)amino)pyrimidin-4-yl)-1H-benz[d]imidazol-2-amine synthesized in Example 1 is as follows.

## CCN1CCN(c2ccc(Nc3cc(-n4c(Nc5c(Cl)c(OC)cc(OC)c5Cl)nc5ccccc54)ncn3)cc2)CC1 [Example 1, N-(2,6-dichloro-3,5-dimethoxyphenyl)-1-(6-((4-(4-ethylpiperazin-1-yl)phenyl)amino)pyrimidin-4-yl)-1H-benz[d]imidazol-2-amine]
Microsomal stability [1]; 0 min
  microsomal stability (% at time): 100.00%
  microsomal stability (% at time), Negative control (excluding NADPH): 100.00%
Microsomal stability [1]; 5 min
  microsomal stability (% at time): 62.73%
  microsomal stability (% at time), Negative control (excluding NADPH): 103.56%
Microsomal stability [1]; 10 min
  microsomal stability (% at time): 40.77%
  microsomal stability (% at time), Negative control (excluding NADPH): 103.56%
Microsomal stability [1]; 15 min
  microsomal stability (% at time): 29.27%
  microsomal stability (% at time), Negative control (excluding NADPH): 102.67%
Microsomal stability [1]; 30 min
  microsomal stability (% at time): 11.88%
  microsomal stability (% at time), Negative control (excluding NADPH): 106.67%
Microsomal stability [1]; 45 min
  microsomal stability (% at time): 3.87%
  microsomal stability (% at time), Negative control (excluding NADPH): 106.67%
Microsomal stability [1]; 60 min
  microsomal stability (% at time): 3.64%
  microsomal stability (% at time), Negative control (excluding NADPH): 104.44%
Microsomal stability [1]; microsomes, Mouse microsomal stability
  half-life: 9.93 min
Microsomal stability [2]; 0 min
  microsomal stability (% at time): 100.00%
Microsomal stability [2]; 5 min
  microsomal stability (% at time): 95.53%
Microsomal stability [2]; 10 min
  microsomal stability (% at time): 88.45%
Microsomal stability [2]; 15 min
  microsomal stability (% at time): 82.61%
Microsomal stability [2]; 30 min
  microsomal stability (% at time): 65.16%
Microsomal stability [2]; 45 min
  microsomal stability (% at time): 45.27%
Microsomal stability [2]; 60 min
  microsomal stability (% at time): 44.31%
Microsomal stability [2]; microsomes, Rat microsomal stability
  half-life: 0.659 h
[3]; PO 10 mg/kg
  F*: 23.44%
[3]; mouse, in vivo, IV 5 mg/kg
  AUC(0-inf): 350 ng·h/mL
  AUC(0-t): 322 ng·h/mL
  Cmax: 111 ng/mL
  Tmax: 0.083 h
  clearance: 238 mL/min/kg
  half-life: 1.83 h
[3]; mouse, in vivo, IV 5 mg/kg, read-out: MRT(0-∞)
  MRT inf: 3.56 h
[3]; mouse, in vivo, IV 5 mg/kg, read-out: Vz
  Vd: 37.7 L/kg
[3]; mouse, in vivo, PO 10 mg/kg
  AUC(0-t): 151 ng·h/mL
  Cmax: 27.1 ng/mL
  Tmax: 6 h
